“Also recorded” adds a separate entry of the source.
How the values were obtained:
[1] = tested on: Sprague-Dawley (SD) rats; assay: MCT-induced pulmonary hypertensive rat model: right ventricular hypertrophy index; assay type: in vivo; conditions: day 28; MCT 60 mg/kg s.c.; OCA 30 mg/kg oral gavage, tadalafil 10 mg/kg/day in drinking water
Experimental: (§1) Pulmonary hypertension was induced by subcutaneous injection of 60 mg/kg monocrotaline (MCT) (Sigma Chemicals, St. Louis, Mo., USA) dissolved in 0.5 N HCl solution. Briefly, male Sprague-Dawley (SD) rats, weighing between 200 to 250 g, were housed in climate-controlled conditions with a 12 hours light:12 hours dark cycle, with free access to chow and water. […]

[2] = tested on: lung mRNA of inflammation, endothelium-proliferative and NO-signaling genes; assay: MCT-induced pulmonary hypertensive rat model: lung mRNA expression by qRT-PCR; assay type: in vivo
Experimental: (§2) Pulmonary hypertension was induced by subcutaneous injection of 60 mg/kg monocrotaline (MCT) (Sigma Chemicals, St. Louis, Mo., USA) dissolved in 0.5 N HCl solution. Briefly, male Sprague-Dawley (SD) rats, weighing between 200 to 250 g, were housed in climate-controlled conditions with a 12 hours light:12 hours dark cycle, with free access to chow and water. SD rats were randomly allocated to the following groups: • 1) SD rats left untreated and sacrificed after 7 (n=5) or 28 (n=5) days; • 2) SD rats receiving a single subcutaneous injection of vehicle MCT sacrificed after 7 days (n=5); • 3) SD rats receiving a single subcutaneous injection of vehicle MCT sacrificed after 28 days (n=10); • 4) SD rats receiving a single subcutaneous injection of MCT [60 mg/kg, n=5] sacrificed after 7 days; • 5) SD rats receiving single subcutaneous injection of MCT [60 mg/kg, n=15] sacrificed after 28 days; • 6) SD rats receiving single subcutaneous injection of MCT [60 mg/kg] and immediately treated with OCA (30 mg/kg, daily 5 days a week, by oral gavage, n=5) for 7 days]; • 7) SD rats receiving single subcutaneous injection of MCT [60 mg/kg] and immediately treated with OCA (30 mg/kg, daily 5 days a week, by oral gavage, n=10) for 28 days]; • 8) SD rats receiving single subcutaneous injection of MCT [60 mg/kg] and immediately treated with tadalafil (10 mg/kg/day, in drinking water, n=5) for 7 days]; • 9) SD rats receiving single subcutaneous injection of MCT [60 mg/kg] and immediately treated with tadalafil (10 mg/kg/day, in drinking water, n=10) for 28 days]; • 10) SD rats receiving single subcutaneous injection of MCT [60 mg/kg] and immediately treated with vehicle OCA (by oral gavage, n=5) for 7 days; • 11) SD rats receiving single subcutaneous injection of MCT [60 mg/kg] and immediately treated with vehicle OCA (by oral gavage, n=10) for 28 days.
mRNA expression analysis of genes involved in inflammation [interleukin 6 (IL-6), monocyte chemoattractant protein-1 (MCP-1/CCL2), cyclooxygenase-2], endothelium-proliferative factors (vascular endothelial growth factor (VEGF) and angiotensin-converting enzyme 2 (ACE2)), NO-signaling [endothelial nitric oxide synthase (eNOS), phosphodiesterase type 5 (PDES), cyclic guanylate cyclase subunits type 1a3 and 1b3, GC1a3, GC1b3, protein kinase G 1, PKG1], were performed. Isolation of RNA from lung, qRT-PCR was performed according to the fluorescent TaqMan methodology. PCR primers and probes specific for mRNA sequences of aforementioned target genes and of the reference gene 18S rRNA was purchased from Life Technologies (Paisley, UK).

[3] = tested on: Sprague-Dawley (SD) rats; assay: MCT-induced pulmonary hypertensive rat model: survival (Kaplan-Meier); assay type: in vivo; conditions: MCT-treated rats, study period 28 days
Experimental: as §1
During the study period, the animals were observed daily for mortality, and median survival time in each group was calculated with Kaplan-Meier analysis.

[4] = tested on: C57B1/6 wild-type and FXR−/− mice; assay: murine bleomycin-induced pulmonary fibrosis model; assay type: in vivo; conditions: bleomycin day 0; 5 mg/kg daily; 22 days
Experimental: The murine model of bleomycin-induced pulmunary fibrosis was induced in C57B1/6 wild-type and FXR^−/− mice (females, 6-8 weeks old). Groups of treatment included: • WT mice: A—saline (day 0); B—bleomycin (day 0); C—bleomycin (day 0)- • Compound 1 (also referred to as 6ECDCA) (5 mg/kg, daily) • FXR^−/− mice: D—saline (day 0); E—bleomycin (day 0); F—bleomycin (day 0) • Compound 1 (also referred to as 6ECDCA) (5 mg/kg, daily).
After 22 days, the mice were sacrified and the subsequent analyses were performed: (1) H&E and […] staining on lung sections; (2) Quantification of collagen I into the lung by qRT-PCR and Sircol collagen assay; (3) FXR, SHP and CXCL12 mRNA quantification by qRT-PCR; and (4) CXCL12 protein quantification by ELISA on lung homogenates.

[5] = tested on: murine lung fibroblast cell line (ATCC number CCL-206); assay: Col I and CXCL12 expression in stimulated lung fibroblasts (qRT-PCR, ELISA, Sircol); assay type: cell-based; conditions: 24 hours
Experimental: FXR activation reduced the production of collagen I and […] by resident fibroblasts. Specifically, after a 24 hour period of starving, cells from the murine lung fibroblast cell line (ATCC number CCL-206) were stimulated with or without TGFβ1 (10 ng/ml) and 6ECDCA (10 μM) for 24 hours and then the FXR, SHP and Col I gene expression was analyzed by qRT-PCR. After a 24 hours period of starving, cells from the murine lung fibroblast cell line (ATCC number CCL-206) were stimulated with or without TNFα (10 ng/ml) and 6ECDCA (10 μM) for 24 hours and then the FXR, SHP and CXCL12 gene expression was analyzed by qRT-PCR.
The downregulation of Col I and CXCL12 induced by 6ECDCA was FXR-mediated. After an overnight period of starving, murine lung fibroblast cell line (ATCC number CCL-206) was stimulated with or without TGFβ1 (10 ng/ml) and 6ECDCA (1 μM) for 24 hours—with and without block of the FXR by siRNA—and then the FXR, SHP, Col I and CXCL12 gene expression was analyzed by qRT-PCR. CXCL12 and Col I secretion in the supernatants was analyzed by ELISA and the Sircol collagen assay, respectively.
The downreguation of Col I and CXCL12 induced by 6ECDCA was SHP-mediated. Specifically, transfection of pulmonary fibroblasts with vector carrying the HA-SHP chimera was carried out to induce a SHP overexpression (WB analysis of the HA-SHP expression). Col I and CXCL12 expression (by qRT-PCR) was analyzed at baseline and after stimulation with TGFβ1. SHP overexpression was sufficient to down-regulate the Col I and CXCL12 expression, basically and after stimulation with TGFβ1.
After an overnight period of starving, murine lung fibroblast cell line (ATCC number CCL-206) were stimulated with/without TGFβ1 (10 ng/ml) and 6ECDCA (1 μM) for 24 hours—with and without block of the SHP by siRNA—and then the FXR, SHP, Col I and CXCL12 gene expression was analyzed by qRT-PCR. CXCL12 and Col I secretion in the supernatants was analyzed by ELISA and the Sircol collagen assay, respectively.

[6] = tested on: small pulmonary arteries; assay: MCT-induced pulmonary hypertensive rat model: pulmonary artery wall thickness; assay type: in vivo; conditions: for MCT-induced increase in wall thickness (WT): OCA 30 mg/kg oral, p<0.00001; for wall thickness (WT) in small pulmonary arteries: MCT 60 mg/kg s.c. alone
Experimental: as §2
Pulmonary vascular remodeling was evaluated by determining wall thickness (WT). Lungs were fixed in 10% buffered formalin and embedded in paraffin, then sectioned at a thickness of 5 μm and stained with hematoxylin-eosin. Ten pulmonary arteries were examined for structural integrity using a morphometric image analysis system independently by two pathologists who were blinded to animal grouping. WT, vessel diameter (ED), were determined. WT(%)=(2×WT/ED)×100%. More than 50 images of pulmonary arterioles (25 to 100 μm diameters) from at least three tissue sections at a magnification of ×20 were captured using amicroscopic digital camera and analyzed using an image analysisprogram (Fiji-win32). The external diameter (D) and medial thickness oneither side (M1 and M2) were measured along the shortest diameter. The medial wall thickness was expressed as follows: % wall thickness=[(M1+M2)/2/D]×100.

[7] = tested on: DSS (Dahl salt-sensitive) rat; assay: Dahl salt-sensitive (DSS) rat high salt diet study; assay type: in vivo
Source text: The rodent model for salt-sensitive hypertension was a DSS (Dahl salt-sensitive) rat (e.g., Rapp). […] Specifically, the rodent models used for the study were male 4-week old DSS rats (e.g., SS/JrHsd) from Harlan Laboratories. The normal diet of the DSS rats was 0.49% NaCl and the high salt diet was 8% NaCl (e.g., Teklad Custom Research Diet). The rats were divided into four groups (herein referred to as DSS study rats): • Group 1; Normal salt diet (1% Methylcellulose) (N=6) • Group 2; High-salt diet (Vehicle; 1% MC) (N=9) • Group 3; High-salt diet (6ECDCA 10mg/kg/day) (N=6) • Group 4; High-salt diet (6ECDCA 30mg/kg/day) (N=9)
The following analyses were carried out: ADMA and NO levels in serum and urine and tissues (e.g., liver, muscle and kidney), blood pressure and heart rate, fasting blood glucose and insulin (HOMA-IR), ipGTT (IR-index), and urinary protein and creatinine. Additional studies such as electrolytes (Na+), histological analysis and TGFbeta expression in kidney, DDAH expression and activity in liver, skeletal muscle and kidney, and Akt-phosphorylation level in liver, skeletal muscle and kidney can also be carried out.
6ECDCA was administered orally daily for 6-weeks. Blood and urine collections were performed at week 0 and week 6 and analyzed by methods known in the art. Blood pressure measurement was performed at week 0, 1, 2, 4 and 6 by tail cuff devices, which was performed on conscious models and was non-invasive. The blood pressure was also obtained via catheter, which was performed when the model was sacrificed. The glucose challenge test was performed at week 5. Renal function was analyzed by measuring the urinary volume, protein and creatinine in a 24 h-urine sample. Histological analysis was performed using the Masson&Trichrome staining. Insulin resistance was analyzed using the ipGTT test and the HOMA/IR index. The ADMA and NO levels were detected in blood concentration and urinary excretion (FIG. 1).

CC[C@H]1[C@@H](O)[C@@H]2[C@H](CC[C@]3(C)[C@@H]([C@H](C)CCC(=O)O)CC[C@@H]23)[C@@]2(C)CC[C@@H](O)C[C@@H]12 [Compound 1, 3α,7α-dihydroxy-6α-ethyl-5β-cholanic acid]
right ventricular hypertrophy index (RVH), RV/(LV+S) [1]: completely normalized RVH
PKG1 mRNA expression ([2]; 28-day treatment, p=0.01 vs. MCT): significantly upregulates
GC1a3 mRNA expression ([2]; after 7 days of OCA dosing): significant increase
PDES mRNA expression ([2]; after 7 days of OCA dosing): significant increase
PKG1 mRNA expression ([2]; after 7 days of OCA dosing): significant increase
MCT-induced MCP-1 expression ([2]; day 7, lung): significantly reduced
IL-6 mRNA expression ([2]; day 28, lung): significantly reduced
MCT-induced MCP-1 expression ([2]; day 28, lung): significantly reduced
VEGF mRNA expression ([2]; day 28, p=0.001 vs. MCT): significantly upregulate
ACE2 mRNA expression ([2]; day 28, p=0.038 vs. MCT): significantly upregulate
mortality rate [3]: 13.2%
pulmonary fibrosis [4]: ameliorates the pulmonary fibrosis
downregulation of Col I and CXCL12, dependence on SHP ([5]; TGFβ1 10 ng/ml, 6ECDCA 1 μM, SHP overexpression / block of SHP by siRNA): SHP-mediated
downregulation of Col I and CXCL12, dependence on FXR ([5]; TGFβ1 10 ng/ml, 6ECDCA 1 μM, with and without block of FXR by siRNA): FXR-mediated
production of collagen I by resident fibroblasts (Col I gene expression) ([5]; TGFβ1 10 ng/ml, 6ECDCA 10 μM): reduced
production of CXCR12 by resident fibroblasts (CXCL12 gene expression) ([5]; TNFα 10 ng/ml, 6ECDCA 10 μM): reduced
MCT-induced increase in wall thickness (WT) ([6]; day 7): markedly reduced
MCT-induced increase in wall thickness (WT) ([6]; day 28): markedly reduced
ADMA levels in serum and urine [7]: did not reduce ADMA
albuminuria induced by high salt diet [7]: reduced albuminuria
IR-index reduction compared to the vehicle ([7]; 10 mg/kg): 38%
body weight ([7]; 10 mg/kg and 30 mg/kg, seven week study): did not affect the body weight
IR-index reduction compared to the vehicle ([7]; 30 mg/kg): 21%
lung weight (pulmonary congestion) ([7]; 30 mg/kg): reduced lung weight
renal protection ([7]; 30 mg/kg): showed renal protection
heart rate ([7]; 10 and 30 mg/kg/day oral): did not affect heart rate
blood pressure ([7]; 10 and 30 mg/kg/day oral, listed as 6ECDCA): did not affect heart rate blood pressure or reduce blood pressure; also recorded: did not reduce blood pressure
glucose levels ([7]; GTT): trended lower
insulin levels ([7]; GTT): trended lower
insulin sensitivity (Insulin Resistance-Index) ([7]; GTT at week 5): reversed insulin resistance

C[C@H]1C(=O)O[C@@H]2CCN3CC=C(COC(=O)[C@](C)(O)[C@]1(C)O)[C@H]23 [MCT, monocrotaline, reference compound]
mortality rate [3]: 24%
wall thickness (WT) in small pulmonary arteries ([6]; day 7, control 19±0.7): 33±0.8%
wall thickness (WT) in small pulmonary arteries ([6]; day 28, control 16.8±0.8%): 32.6±0.7%

From patent US20180064729A1, “Treatment of Pulmonary Disease” (Intercept Pharmaceuticals, Inc., priority 2012, published 2018)
